US9840508B2, “N-acyl-(3-substituted)-(8-methyl)-5,6-dihydro-[1,2,4]triazolo[4,3-a] pyrazines as selective NK-3 receptor antagonists, pharmaceutical composition, methods for use in NK-3 receptor-mediated disorders” (EUROSCREEN SA, priority 2013, dated 2017)
Where two headings read alike, the source gives them in different places.

Columns and labels:
human NK-1 receptor = human NK-1 receptor (Homo sapiens (Human), UniProt P25103); experiment: Selectivity binding assay, human NK-1 ([3H] substance P); conditions: CHO cell membranes; 2 nM [3H] substance P; read-out: hNK-1 (Ki)
Experimental: (§1) Selectivity of the compounds of the invention was determined over the other human NK receptors, namely NK-1 and NK-2 receptors.
The affinity of compounds of the invention for the NK-1 receptor was evaluated in CHO recombinant cells which express the human NK-1 receptor. Membrane suspensions were prepared from these cells. The following radioligand: [^3H] substance P (PerkinElmer Cat#NET111520) was used in this assay. Binding assays were performed in a 50 mM Tris/5 mM MnCl2/150 mM NaCl/0.1% BSA at pH 7.4. Binding assays consisted of 25 μl of membrane suspension (approximately 5 μg of protein/well in a 96 well plate), 50 μl of compound or reference ligand (Substance P) at increasing concentrations (diluted in assay buffer) and 2 nM [^3H] substance P. The plate was incubated 60 min at 25° C. in a water bath and then filtered over GF/C filters (Perkin Elmer, 6005174, presoaked in 0.5% PEI for 2 h at room temperature) with a Filtration unit (Perkin Elmer). The radioactivity retained on the filters was measured by using the TopCount-NXT reader (Packard). Competition curves were obtained for compounds of the invention and the concentrations of compounds which displaced 50% of bound radioligand (IC50) were determined and then apparent inhibition constant Ki values were calculated by the following equation: Ki=IC50/(1+[L]/KD) where [L] is the concentration of free radioligand and KD is its dissociation constant at the receptor, derived from saturation binding experiments (Cheng and Prusoff, 1973).

plasma protein = experiment: Determination of plasma protein binding (rapid equilibrium dialysis); type: in vitro ADME; conditions: 4 hours at 37° C.
Source text: Determination of Plasma Protein Binding
The pharmacokinetic and pharmacodynamic properties of chemicals/drugs are largely a function of the reversible binding of chemicals to plasma or serum proteins. Generally, only the unbound or “free fraction” of a drug is available for diffusion or transport across cell membranes, and for interaction with a pharmacological/toxicological target. Consequently, the extent of the plasma protein binding (PPB) of a compound influences its action as well as its distribution and elimination.
The determination of plasma protein binding (PPB) of a compound is enabled by equilibrium dialysis, an accepted and standard method for reliable estimation of the non-bound drug fraction in plasma. RED (Rapid Equilibrium Dialysis) device insert is made of two side-by-side chambers separated by an O-ring-sealed vertical cylinder of dialysis membrane (MWCO˜8,000). Plasma containing drug (at 5 μM or blood concentrations otherwise corresponding to efficacious doses, if known) is added to one chamber while buffer is added to the second. After 4 hours incubation at 37° C. under shaking, an aliquot is removed from each chamber and analyzed by a LC-MS/MS procedure enables the determination of both free and bound drug.
The percentages provided in Table 4 represent for the compounds of the invention the bound drug fraction to the plasma protein. The “free fraction” may be calculated as 100%−% rPPB (i.e. the complementary percentage of that disclosed in Table 4, corresponding to the drug concentration that is unbound and therefore available to engage biological target and elicit pharmacological activity).

human NK-3 receptor [1] = molecular target: T1, human NK-3 receptor (Homo sapiens (Human), UniProt P29371); experiment: Aequorin functional assay with human NK-3 receptor (antagonist testing); type: cell-based; conditions: CHO cells expressing human NK-3 receptor; agonist NKA at EC80 (3 nM); read-out: Functional assay: Aequorin assay with human NK-3 receptor hNK-3 - AEQ (antagonist IC50)
Experimental: Aequorin Assay with Human NK-3 Receptor
Changes in intracellular calcium levels are a recognized indicator of G protein-coupled receptor activity. The efficacy of compounds of the invention to inhibit NKA-mediated NK-3 receptor activation was assessed by an in vitro Aequorin functional assay. Chinese Hamster Ovary recombinant cells expressing the human NK-3 receptor and a construct that encodes the photoproteinapoaequorin were used for this assay. In the presence of the cofactor coelenterazine, apoaequorin emits a measurable luminescence that is proportional to the amount of intracellular (cytoplasmic) free calcium.
The antagonist activity of compounds of the invention is measured following pre-incubation (3 minutes) of the compound (at various concentrations) with the cells, followed by addition of the reference agonist (NKA) at a final concentration equivalent to the EC80 (3 nM) and recording of emitted light (FDSS 6000 Hamamatsu) over the subsequent 90-second period. The intensity of the emitted light is integrated using the reader software. Compound antagonist activity is measured based on the concentration-dependent inhibition of the luminescence response to the addition of Neurokinin A.
The IC50 values shown in Table 2 indicate that compounds of the invention are potent NK-3 antagonist compounds.

human NK-2 receptor = human NK-2 receptor (Homo sapiens (Human), UniProt P21452); experiment: Selectivity binding assay, human NK-2 ([125I]-Neurokinin A); conditions: CHO cell membranes; 0.1 nM [125I]-Neurokinin A; read-out: hNK-2 (Ki)
Experimental: as §1
The affinity of compounds of the invention for the NK-2 receptor was evaluated in CHO recombinant cells which express the human NK-2 receptor. Membrane suspensions were prepared from these cells. The following radioligand [^125I]-Neurokinin A (PerkinElmer Cat#NEX252) was used in this assay. Binding assays were performed in a 25 mM HEPES/1 mM CaCl2/5 mM MgCl2/0.5% BSA/10 μg/ml saponin, at pH 7.4. Binding assays consisted of 25 μl of membrane suspension (approximately 3.75 μg of protein/well in a 96 well plate), 50 μl of compound or reference ligand (Neurokinin A) at increasing concentrations (diluted in assay buffer) and 0.1 nM [^125I]-Neurokinin A. The plate was incubated 60 min at 25° C. in a water bath and then filtered over GF/C filters (Perkin Elmer, 6005174, presoaked in assay buffer without saponine for 2 h at room temperature) with a Filtration unit (Perkin Elmer). The radioactivity retained on the filters was measured by using the TopCount-NXT reader (Packard). Competition curves were obtained for compounds of the invention and the concentrations of compounds which displaced 50% of bound radioligand (IC50) were determined and then apparent inhibition constant Ki values were calculated by the following equation: Ki=IC50/(1+[L]/KD) where [L] is the concentration of free radioligand and KD is its dissociation constant at the receptor, derived from saturation binding experiments (Cheng and Prusoff, 1973).

human NK-3 receptor [2] = molecular target: T1, human NK-3 receptor; experiment: 3H-SB222200 binding competition assay with human NK-3 receptor
Experimental: The affinity of compounds of the invention for the human NK-3 receptor was determined by measuring the ability of compounds of the invention to competitively and reversibly displace a well-characterized NK-3 radioligand in a concentration-dependent manner.
^3H-SB222200 Binding Competition Assay with Human NK-3 Receptor
The ability of compounds of the invention to inhibit the binding of the NK-3 receptor selective antagonist ^3H-SB222200 was assessed by an in vitro radioligand binding assay. Membranes were prepared from Chinese hamster ovary recombinant cells stably expressing the human NK-3 receptor. The membranes were incubated with 5 nM ^3H-SB222200 (ARC) in a HEPES 25 mM/NaCl 0.1M/CaCl2 1 mM/MgCl2 5 mM/BSA 0.5%/Saponin 10 μg/ml buffer at pH 7.4 and various concentrations of compounds of the invention. The amount of ^3H-SB222200 bound to the receptor was determined after filtration by the quantification of membrane associated radioactivity using the TopCount-NXT reader (Packard).

[3] = CHO cell membranes, 5 nM 3H-SB222200, Table 2, read-out: Competitive binding assay with human NK-3 receptor hNK-3 (Ki)
[4] = Table 3 (selectivity table), read-out: hNK-3 (Ki)

T1 sequence (P29371 whole entry): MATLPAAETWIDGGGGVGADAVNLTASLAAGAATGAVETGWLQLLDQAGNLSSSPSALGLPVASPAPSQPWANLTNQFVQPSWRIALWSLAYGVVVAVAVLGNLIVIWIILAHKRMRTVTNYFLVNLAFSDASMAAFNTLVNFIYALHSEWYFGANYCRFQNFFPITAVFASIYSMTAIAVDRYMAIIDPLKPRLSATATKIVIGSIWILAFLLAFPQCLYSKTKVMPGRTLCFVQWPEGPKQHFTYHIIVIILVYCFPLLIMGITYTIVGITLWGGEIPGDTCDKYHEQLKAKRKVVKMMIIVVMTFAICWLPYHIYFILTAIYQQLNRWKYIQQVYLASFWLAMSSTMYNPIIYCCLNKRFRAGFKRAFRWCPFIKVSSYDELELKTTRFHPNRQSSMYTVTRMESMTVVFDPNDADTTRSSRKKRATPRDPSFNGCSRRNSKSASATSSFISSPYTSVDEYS
Sequence of human NK-1 receptor (P25103 whole entry): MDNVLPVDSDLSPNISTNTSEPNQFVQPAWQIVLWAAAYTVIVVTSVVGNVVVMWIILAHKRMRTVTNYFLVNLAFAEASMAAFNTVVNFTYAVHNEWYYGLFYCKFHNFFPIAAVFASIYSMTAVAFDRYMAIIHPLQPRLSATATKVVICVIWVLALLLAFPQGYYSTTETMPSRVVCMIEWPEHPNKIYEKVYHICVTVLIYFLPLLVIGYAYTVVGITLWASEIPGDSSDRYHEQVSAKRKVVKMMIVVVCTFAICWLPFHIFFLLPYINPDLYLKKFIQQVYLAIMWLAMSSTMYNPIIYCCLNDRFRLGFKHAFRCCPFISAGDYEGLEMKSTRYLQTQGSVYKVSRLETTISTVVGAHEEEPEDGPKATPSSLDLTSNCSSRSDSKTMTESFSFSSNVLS
Sequence of human NK-2 receptor (P21452 whole entry): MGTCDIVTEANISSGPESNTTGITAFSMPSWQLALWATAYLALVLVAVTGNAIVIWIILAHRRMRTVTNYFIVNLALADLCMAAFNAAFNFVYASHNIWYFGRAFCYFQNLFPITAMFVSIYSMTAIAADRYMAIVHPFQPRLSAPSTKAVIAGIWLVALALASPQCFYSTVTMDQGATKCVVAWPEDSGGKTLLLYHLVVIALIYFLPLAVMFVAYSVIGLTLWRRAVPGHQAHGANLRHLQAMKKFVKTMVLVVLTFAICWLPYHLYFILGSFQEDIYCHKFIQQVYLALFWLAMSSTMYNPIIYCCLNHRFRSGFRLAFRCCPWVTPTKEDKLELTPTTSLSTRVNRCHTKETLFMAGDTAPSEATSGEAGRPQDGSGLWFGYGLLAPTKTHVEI

Structure (SMILES)	Ki (human NK-1 receptor) [nM]	Exposure (% rPPB), bound drug fraction to the plasma protein (plasma protein) [%]	IC50 (human NK-3 receptor [1]) [nM]	Ki (human NK-2 receptor) [nM]	Ki (human NK-3 receptor [2]; [3]) [nM]	Ki (human NK-3 receptor [2]; [4]) [nM]
C[C@@H]1c2nnc(-c3csc(C(F)(F)F)n3)n2CCN1C(=O)c1ccc(F)c(Cl)c1 [Compound 16, (R)-(3-chloro-4-fluorophenyl)(8-methyl-3-(2-(trifluoromethyl)thiazol-4-yl)-5,6-dihydro-[1,2,4]triazolo[4,3-a]pyrazin-7(8H)-yl)methanone]	9400	82	23	1500	14	14
Cc1ccc(-c2nnc3n2CCN(C(=O)c2ccc(Cl)c(Cl)c2)[C@@H]3C)o1 [Compound 11, (R)-(3,4-dichlorophenyl)(8-methyl-3-(5-methylfuran-2-yl)-5,6-dihydro-[1,2,4]triazolo[4,3-a]pyrazin-7(8H)-yl)methanone]	6900	76	36	4200	27	27
Cc1ccc(-c2nnc3n2CCN(C(=O)c2ccc(Cl)c(F)c2)[C@@H]3C)o1 [Compound 9, (R)-(4-chloro-3-fluorophenyl)(8-methyl-3-(5-methylfuran-2-yl)-5,6-dihydro-[1,2,4]triazolo[4,3-a]pyrazin-7(8H)-yl)methanone]	13000	68	53	14000	38	38
Cc1ccc(-c2nnc3n2CCN(C(=O)c2cc(F)c(F)c(F)c2)[C@@H]3C)o1 [Compound 7, (R)-(8-methyl-3-(5-methylfuran-2-yl)-5,6-dihydro-[1,2,4]triazolo[4,3-a]pyrazin-7(8H)-yl)(3,4,5-trifluorophenyl)methanone]	27000	26	57	21000	33	33
C[C@@H]1c2nnc(-c3csc(C(F)(F)F)n3)n2CCN1C(=O)c1ccc(F)c(F)c1F [Compound 14, (R)-(8-methyl-3-(2-(trifluoromethyl)thiazol-4-yl)-5,6-dihydro-[1,2,4]triazolo[4,3-a]pyrazin-7(8H)-yl)(2,3,4-trifluorophenyl)methanone]	28000	69	59	15000	40	40
